Assay results: US12365674B2, “Inhibitors of histone deacetylase useful for the treatment or prevention of HIV infection” (Merck Sharp & Dohme LLC, priority 2019, dated 2025)

These compounds were tested against T1, human HDAC1 (Homo sapiens, UniProt Q13547) (assay: Human HDAC enzyme inhibitor Fluor-de-Lys assay, HDAC1). Settings: 0.3 nM enzyme, 20 μM substrate BML-KI104, 3 h pre-incubation, 60 min reaction; read-out: HDAC1_IC50.
T1 construct: Full length human HDAC1-FLAG was stably expressed in HEK-293F cells; host or cells: HEK-293F cells
Type: biochemical
Excerpt: Recombinant human HDAC8 (catalog number BML-SE145-0100) and HDAC10 (catalog number BML-SE559-0050) enzymes, HDAC substrates BML-KI104 and BML-KI178, and HDAC developer solutions BML-KI105 and BML-KI176 were purchased from Enzo Life Sciences (Farmingdale, NY). Recombinant human HDAC5 and HDAC11 were purchased from BPS Bioscience (San Diego, CA)(catalog numbers 50045 and 50021). Substrate Boc-Lys(TFA)-AMC was obtained from Bachem (Bupendorf, Switzerland) (catalog number 1-1985). HDAC inhibitor suberoylanilide hydroxamic acid (SAHA) was obtained from Indofine (Hillsborough Township, NJ) and trichostatin A (TSA) was obtained from Sigma-Aldrich (St. Louis, MO). […] HEPES pH 8.0 was obtained from Boston BioProducts (Ashland, MA), Tween-20 from Fisher Scientific (Hampton, NH)(catalog number BP337), TCEP from Calbiochem and 7.5% bovine serum albumin (BSA) from Life Technologies (Carlsbad, CA) (catalog number 15260037). 384-well, black assay plates were obtained from Corning (Corning, NY) (catalog number 3575).
Recombinant human HDAC1, HDAC2, and HDAC3/SMRT heterodimer were prepared by Merck Research Laboratories. […] The eluted protein was then passed over an anti-HDAC1 immunoaffinity column to remove any complexes containing HDAC1. […]
The histone deacetylase activities of HDAC1, HDAC2, HDAC3, HDAC6, and HDAC8 were measured in modified Fluor-de-Lys assays in 384-well format. In this assay, HDAC enzymes are initially incubated with an ε-acetyl (or -trifluoroacetyl)-L-lysine-containing substrate with a C-terminal amide having aminomethylcoumarin as the amine component. HDACs cleave the ε-acetyl group, rendering the resulting product susceptible to AMC cleavage by trypsin. The released AMC is then detected by its fluorescence.
The HDAC 1, 2 assays employed buffer A, which contained 20 mM HEPES, pH 8.0, 1 mM MgCl2, 137 mM NaCl, 2.7 mM KCl, 0.05% BSA. The HDAC3/SMRT assay employed buffer B, consisting of 20 mM HEPES, pH 8.0, 1 mM MgCl2, 50 mM NaCl, 2.7 mM KCl, 0.05% BSA, 0.005% Tween 20, and 10 μM IP4. The HDAC6 assay employed buffer C, consisting of 20 mM HEPES, pH 8.0, 1 mM MgCl2, 137 mM NaCl, 2.7 mM KCl, 0.5 mM TCEP (Calbiochem) and 0.05% BSA. The HDAC8 assay employed buffer D, consisting of 20 mM HEPES, pH 8.0, 1 mM MgCl2, 100 mM NaCl, 20 mM KCl, 0.1% n-octyl-β-D-glucoside (Anatrace, Maumee, OH) and 0.05% BSA. All steps were performed at room temperature (23° C.). The assay was performed by pre-incubating serial dilutions of test compounds with the target HDAC prior to initiation with substrate. Each compound was titrated in a 10-point dose response, using a 1:3 fold dilution scheme, with 0.15 ul of solution added by ECHO555 to the plate, followed by the addition of 20 μl of the appropriate HDAC isoform diluted in appropriate assay buffer. […] Final conditions used for each assay were: 1. HDAC 1, 0.3 nM total enzyme, 20 μM substrate BML-K1104; 2. HDAC 2, 1.5 nM total enzyme, 40 μM substrate BML-K1104; 3. HDAC 3/SMRT, 0.3 nM total enzyme, 20 μM substrate BML-K1104; 4. HDAC 6, 1.3 nM total enzyme, 2.5 μM substrate BML-K1104; 5. HDAC 8, 1.3 nM total enzyme, 200 μM substrate BML-K1178; the final high dose of test compound was 30 μM. […] The reactions were stopped and developed by addition of 30 ul of HDAC developer solution containing a saturating level of HDAC inhibitor as follows: 1.

T1 sequence (Q13547 whole entry): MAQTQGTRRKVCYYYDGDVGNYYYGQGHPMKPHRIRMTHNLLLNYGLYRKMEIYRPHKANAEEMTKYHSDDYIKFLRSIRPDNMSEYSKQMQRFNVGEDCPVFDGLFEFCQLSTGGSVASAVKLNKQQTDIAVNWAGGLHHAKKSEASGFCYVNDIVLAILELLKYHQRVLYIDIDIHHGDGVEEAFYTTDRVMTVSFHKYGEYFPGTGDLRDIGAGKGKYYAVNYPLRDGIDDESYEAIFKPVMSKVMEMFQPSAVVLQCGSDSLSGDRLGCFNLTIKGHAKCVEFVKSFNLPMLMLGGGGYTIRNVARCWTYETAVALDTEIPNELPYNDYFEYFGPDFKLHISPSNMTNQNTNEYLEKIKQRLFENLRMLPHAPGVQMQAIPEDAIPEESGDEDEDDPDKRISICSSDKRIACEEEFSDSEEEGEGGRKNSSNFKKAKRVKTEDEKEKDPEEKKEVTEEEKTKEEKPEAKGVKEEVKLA

Compared with `COc1nc2ccccc2cc1-c1cnc([C@@H](N)COCCCC(=O)c2ncco2)[nH]1` [Compound 1, (R)-4-(2-amino-2-(5-(2-methoxyquinolin-3-yl)-1H-imidazol-2-yl)ethoxy)-1-(oxazol-2-yl)butan-1-one], `COc1nc2ccccc2cc1-c1cnc([C@H](COCCCC(=O)c2ncco2)NC(=O)CN(C)C)[nH]1` [Compound 13, N-{(1R)-1-[5-(2-methoxyquinolin-3-yl)-1H-imidazol-2-yl]-2-[4-(1,3-oxazol-2-yl)-4-oxobutoxy]ethyl}-N~2~,N~2~- dimethylglycinamide] is 110-fold lower in IC50: 288 nM for the first, 2.7 nM for the second. The second is the more potent here.

First: N[C@@H](COCCCC(=O)c1ccon1)c1ncc(-c2ccccc2F)[nH]1 [Compound 2, (R)-4-(2-amino-2-(5-(2-fluorophenyl)-1H-imidazol-2-yl)ethoxy)-1-(isoxazol-3-yl)butan-1-one]
Second: CN1CC(C(=O)N[C@@H](COCCCC(=O)c2ccon2)c2ncc(-c3ccccc3F)[nH]2)C1 [Compound 15, N-[(1R)-1-[5-(2-fluorophenyl)-1H-imidazol-2-yl]-2-(4-isoxazol-3-yl-4-oxobutoxy)ethyl]-1-methylazetidine-3-carboxamide]
The IC50 of the first is 150-fold higher: 602 nM for the first, 4 nM for the second.

Compared with `CNC(=O)C(=O)CCCOC[C@H](NC(=O)c1cncs1)c1ncc(-c2cc3ccccc3nc2OC)[nH]1` [Compound 8, N-[(1R)-1-[5-(2-methoxyquinolin-3-yl)-1H-imidazol-2-yl]-2-{[5-(methylamino)-4,5-dioxopentyl]oxy}ethyl]-1,3-thiazole-5-carboxamide], `COc1nc2ccccc2cc1-c1cnc([C@H](COCCCC(=O)c2ncco2)NC(=O)c2cncs2)[nH]1` [Compound 10, N-{(1R)-1-[5-(2-methoxyquinolin-3-yl)-1H-imidazol-2-yl]-2-[4-(1,3-oxazol-2-yl)-4-oxobutoxy]ethyl}-1,3-thiazole-5-carboxamide] is 4.4-fold higher in IC50: 1.5 nM for the first, 6.6 nM for the second.

Going from `CNC(=O)C(=O)CCCOC[C@H](NC(=O)C12CCN(CC1)CC2)c1ncc(-c2cc3ccccc3nc2OC)[nH]1` [Compound 9, N-[(1R)-1-[5-(2-methoxyquinolin-3-yl)-1H-imidazol-2-yl]-2-{[5-(methylamino)-4,5-dioxopentyl]oxy}ethyl]-1-azabicyclo[2.2.2]octane-4-carboxamide] to `COc1nc2ccccc2cc1-c1cnc([C@H](COCCCC(=O)c2ncco2)NC(=O)C23CCN(CC2)CC3)[nH]1` [Compound 12, N-{(1R)-1-[5-(2-methoxyquinolin-3-yl)-1H-imidazol-2-yl]-2-[4-(1,3-oxazol-2-yl)-4-oxobutoxy]ethyl}-1-azabicyclo[2.2.2]octane-4-carboxamide], the IC50 rises from 1.5 nM to 4.7 nM (3.1-fold).

`COc1nc2ccccc2cc1-c1cnc([C@H](COCCCC(=O)c2ncco2)NC(=O)[C@H]2CC23CCN(C)CC3)[nH]1` [Compound 11, (1S)-N-{(1R)-1-[5-(2-methoxyquinolin-3-yl)-1H-imidazol-2-yl]-2-[4-(1,3-oxazol-2-yl)-4-oxobutoxy]ethyl}-6-methyl-6-azaspiro[2.5]octane-1-carboxamide] and `Cc1ccc2cc(-c3cnc([C@H](CSCCCC(=O)c4ncco4)NC(=O)[C@H]4CC45CCN(C)CC5)[nH]3)ccc2n1` [Compound 21, (1S)-6-methyl-N-[(1R)-1-[5-(2-methylquinolin-6-yl)-1H-imidazol-2-yl]-2-{[4-(1,3-oxazol-2-yl)-4-oxobutyl]sulfanyl}ethyl]-6-azaspiro[2.5]octane-1-carboxamide] are within 1.5-fold of each other in IC50: 2.1 nM for the first, 1.5 nM for the second.

Compared with `COc1nc2ccccc2cc1-c1cnc([C@H](COCCCC(=O)c2ccon2)NC(=O)CN(C)C)[nH]1` [Compound 14, N-{(1R)-2-(4-isoxazol-3-yl-4-oxobutoxy)-1-[5-(2-methoxyquinolin-3-yl)-1H-imidazol-2-yl]ethyl}-N~2~,N~2~- dimethylglycinamide], `CN(C)CC(=O)N[C@@H](COCCCC(=O)c1ccon1)c1[nH]c(-c2ccc(F)cc2)nc1Cl` [Compound 17, N-[(1R)-1-[4-chloro-2-(4-fluorophenyl)-1H-imidazol-5-yl]-2-(4-isoxazol-3-yl-4-oxobutoxy)ethyl]-N~2~,N~2~- dimethylglycinamide] is 12-fold higher in IC50: 1.5 nM for the first, 18.6 nM for the second.

Going from `CN1CC(C(=O)N[C@@H](COCCCC(=O)c2ccon2)c2[nH]c(-c3ccc(F)cc3)nc2Cl)C1` [Compound 16, N-[(1R)-1-[4-chloro-2-(4-fluorophenyl)-1H-imidazol-5-yl]-2-(4-isoxazol-3-yl-4-oxobutoxy)ethyl]-1-methylazetidine-3-carboxamide] to `CN1CCC2(CC1)C[C@@H]2C(=O)N[C@@H](COCCCC(=O)c1ccon1)c1[nH]c(-c2ccc(F)cc2)nc1Cl` [Compound 18, (1S)-N-[(1R)-1-[4-chloro-2-(4-fluorophenyl)-1H-imidazol-5-yl]-2-(4-isoxazol-3-yl-4-oxobutoxy)ethyl]-6-methyl-6-azaspiro[2.5]octane-1-carboxamide], the IC50 falls from 11.8 nM to 1.4 nM (8.4-fold).

Compared with `COc1cc2nc(C)ccc2cc1-c1cnc([C@H](COCCCC(=O)c2cc(C)on2)NC(=O)C2CN(C)C2)[nH]1` [Compound 19, N-{(1R)-1-[5-(7-methoxy-2-methylquinolin-6-yl)-1H-imidazol-2-yl]-2-[4-(5-methylisoxazol-3-yl)-4-oxobutoxy]ethyl}-1-methylazetidine-3-carboxamide], `COc1cc2nc(C)ccc2cc1-c1cnc([C@H](COCCCC(=O)c2cc(C)on2)NC(=O)[C@H]2CC23CCN(C)CC3)[nH]1` [Compound 20, (1S)-N-{(1R)-1-[5-(7-methoxy-2-methylquinolin-6-yl)-1H-imidazol-2-yl]-2-[4-(5-methylisoxazol-3-yl)-4-oxobutoxy]ethyl}-6-methyl-6-azaspiro[2.5]octane-1-carboxamide] is 1.9-fold lower in IC50: 6.9 nM for the first, 3.7 nM for the second. The second is the more potent here.
